Drawing on US20250145637A1, “SULFONAMIDE DERIVATIVE, PREPARATION METHOD THEREFOR AND MEDICAL USE THEREOF” (Jiangsu Hengrui Pharmaceuticals Co. Ltd., priority 2021, published 2025), this text covers IC50 and Emax for nine compounds.

In the assay the test system is H3K23 acetylation in U-2 OS cells. Description: U2OS cell H3K23 acetylation IF assay (immunofluorescence). It is filed as cell-based. The settings on record: Homo sapiens; for IC50: 24 h incubation, read-out: H3K23 ac/IC50; for Emax: inhibition of H3K23 acetylation, 24 h, read-out: Maximum inhibition rate/Imax %. Here is the method: Test Example 3: U2OS Cell H3K23 Acetylation IF Assay (Immunofluorescence)
I. Reagents and Instruments
• 1. U-2 OS (ATCC HTB-96) • 2. Recombinant anti-histone H3 (acetyl K23) antibody (Abcam, ab177275) • 3. Goat anti-rabbit IgG (H+L), Superclonal™ recombinant secondary antibody, Alexa Fluor 488 (Thermofisher, A27034) • 4. Hoechst 33342 (Sigma-Aldrich, B2261-25MG) • 5. Assay plate, 96-well, black with clear bottom (Corning, 3603) • 6. Bovine serum albumin (BSA) (Sangon Biotech, A500023-0100) • 7. Methanol (GENERAL-REAGENT, G75851D) • 8. Tween-20 (Sangon, A100777-0500) • 9. Triton X-100 (Solarbio, T8200) • 10. PBS (Shanghai BasalMedia Technologies Co., Ltd., B320KJ) • 11. 20×PBS buffer (Sangon Biotech, B548117-0500) • 12. McCoy's 5A medium (Gibco, 16600082) • 13. 0.25% trypsin-EDTA (1×) (Gibco, 25200-072) • 14. Pen strep (Gibco, 15140-122) • 15. DPBS (1×) (Gibco, 14190-144) • 16. FBS (Gibco, 10091148) • 17. Automatic cell counter (Countstar, IC1000) • 18. Thermostatic incubator (Thermo, 1160) • 19. ImageXpress® Micro Confocal (Molecular Device)
a. Blocking buffer: PBS (Shanghai BasalMedia)+BSA (final concentration of 1%)+Triton X-100 (final concentration of 0.5%).
b. Wash buffer: PBS (20×PBS was diluted to 1×PBS)+Tween-20 (final concentration of 0.1%).
c. Primary antibody solution: Recombinant anti-histone H3 (acetyl K23) antibody was diluted in blocking buffer at a ratio of 1:1000.
d. Secondary antibody solutions: Goat anti-rabbit IgG (H+L), Superclonal™ recombinant secondary antibody, Alexa Fluor 488 was diluted in blocking buffer at a ratio of 1:1000, and Hoechst 33342 was diluted in blocking buffer at a ratio of 1:5000.
e. Compounds: initial concentration of 100 μM, 3-fold dilution, 9 gradient concentrations. All compound concentrations were diluted 500-fold with McCoy's 5A medium for later use.
2. Experimental Procedure
2.1. Cell Treatment (Day One)
a. The state of U-2 OS cells was observed under a microscope to make sure that the cell confluence was about 90%.
b. The cell supernatant was discarded. The cells were rinsed with DPBS once, and the DPBS was removed. The cells were digested with a proper amount of trypsin and left to stand at room temperature or 37° C. for 5 min.
c. The digestion was stopped with an equal volume of medium containing 10% FBS, and the cell suspension was collected and centrifuged at 300 g for 3 min. The cells were suspended in a proper amount of fresh medium.
d. The resulting cell suspension was collected and cell counting was performed.
e. The cell suspension was diluted and plated at 9000 cells/50 μL/well.
f. The wells on the periphery were blocked with 100 μL of PBS.
g. The cell culture plates were incubated overnight in a 37° C., 5% carbon dioxide incubator.
2.2. Compound Addition (Day Two)
a. 50 μL of diluted compound was added to the cell supernatant (50 μL/well) in each cell plate.
b. After the addition, the cell plates were incubated in a 37° C., 5% carbon dioxide incubator for 24 h.
2.3. Immunofluorescence Staining and Measurement (Day Three to Day Four)
a. After the 24-hour incubation, the cell plates were removed from the incubator. The medium was discarded, and plates were fixed with pre-cooled methanol at room temperature for 10 min.
b. The fixation buffer was discarded, and the plates were quickly washed with wash buffer 3 times and then slowly washed 3 times (5 min/wash).
c. The wash buffer was discarded, and blocking buffer was added. The plates were incubated at room temperature for 60 min.
d. The blocking buffer was discarded, and the prepared primary antibody solution was added. The plates were incubated overnight at 4° C.
e. The primary antibody solution was discarded, and the prepared secondary antibody solution was added. The plates were incubated at room temperature for 60 min.
f. The secondary antibody solution was discarded, and the plates were quickly washed with wash buffer 3 times and then slowly washed 5 times (5 min/wash).
g. The plates were tested on ImageXpress® Micro Confocal.
h. […]

As for `CCOc1cc(C)ccc1S(=O)(=O)Nc1noc2cc(Cn3cccn3)c3c(c12)OCCC3` [Compound 7, N-(5-((1H-pyrazol-1-yl)methyl)-3,4-dihydro-2H-chromeno[8,7-d]isoxazol-9-yl)-2-ethoxy-4-methylbenzenesulfonamide], the IC50 turned out to be 1.4 nM and the Emax is 97.4%.
For `COc1cccc(OC(F)(F)F)c1S(=O)(=O)Nc1noc2cc(Cn3cccn3)c3c(c12)OCCC3` [Compound 10, N-(5-((1H-pyrazol-1-yl)methyl)-3,4-dihydro-2H-chromeno[8,7-d]isoxazol-9-yl)-2-methoxy-6-(trifluoromethoxy)benzenesulfonamide], in that order: 1.2 nM and 106%.
For `COc1ccccc1S(=O)(=O)Nc1noc2cc(Cn3cccn3)c3c(c12)OCC3` [Compound 20, N-(4-((1H-pyrazol-1-yl)methyl)-2,3-dihydrobenzofuro[7,6-d]isoxazol-8-yl)-2-methoxybenzenesulfonamide], in that order: 4.6 nM and 99.4%.
Taken in the same sequence, the figures for `COc1ccccc1S(=O)(=O)Nc1noc2cc(Cn3cccn3)c3c(c12)OCCC3` [Compound 3, N-(5-((1H-pyrazol-1-yl)methyl)-3,4-dihydro-2H-chromeno[8,7-d]isoxazol-9-yl)-2-methoxybenzenesulfonamide] were 0.9 nM and 106%.
Take `COc1ccc(F)cc1S(=O)(=O)Nc1noc2cc(Cn3cccn3)c3c(c12)OCCC3` [Compound 9, N-(5-((1H-pyrazol-1-yl)methyl)-3,4-dihydro-2H-chromeno[8,7-d]isoxazol-9-yl)-5-fluoro-2-methoxybenzenesulfonamide]: the IC50 was 0.75 nM and the Emax came out at 99.5%.
In the case of `COc1cccc(OC)c1S(=O)(=O)Nc1noc2cc(Cn3cccn3)c3c(c12)OC(F)(F)O3` [Compound 5, N-(4-((1H-pyrazol-1-yl)methyl)-2,2-difluoro-[1,3]dioxolo[4′,5′:5,6]benzo[1,2-d]isoxazol-8-yl)-2,6-dimethoxybenzenesulfonamide], the IC50 was found to be 0.6 nM and the Emax stood at 104%.
For `COc1cccc(OC)c1S(=O)(=O)Nc1noc2cc(Cn3cccn3)c3c(c12)OCC3` [Compound 1, N-(4-((1H-pyrazol-1-yl)methyl)-2,3-dihydrobenzofuro[7,6-d]isoxazol-8-yl)-2,6-dimethoxybenzenesulfonamide], in that order: 1.1 nM and 102%.
As to `COc1cccc(OC)c1S(=O)(=O)Nc1noc2cc(Cn3cccn3)c3c(c12)OCCC3` [Compound 2, N-(5-((1H-pyrazol-1-yl)methyl)-3,4-dihydro-2H-chromeno[8,7-d]isoxazol-9-yl)-2,6-dimethoxybenzenesulfonamide], the IC50 came to 0.4 nM and the Emax came out at 98.5%.
`Cc1ccc(S(=O)(=O)Nc2noc3cc(Cn4cccn4)c4c(c23)OCCC4)c(OCC(F)(F)F)c1` [Compound 8, N-(5-((1H-pyrazol-1-yl)methyl)-3,4-dihydro-2H-chromeno[8,7-d]isoxazol-9-yl)-4-methyl-2-(2,2,2-trifluoroethoxy)benzenesulfonamide]: the IC50 came out at 2.8 nM and the Emax amounted to 99.4%.
